Data as given in patent publication US7112680B2, “Heterocyclic hydrazones for use as anti-cancer agents” (Austria Wirtschaftsservice Gesellschaft MIT Beschrankter …, priority 2000, dated 2006).
Read-outs that look alike come from different tables or passages of the source. Values belong to the molecule of their own block, whether it stands above or below them.

How the values were obtained:
[1] = test system: HT-29 (colon adenocarcinoma); test: Inhibition of tumor cell growth, SRB-assay, HT-29; type: cell-based, human
Method: (§1) The KB cell lines were grown in Dulbecco's modified Eagle's medium (4,5 g glucose/l). To the cultures of KB-C1 cells 1 μg of colchicine/ml, and to the hydroxyurea-resistant KB-HU cells 1 mM hydroxyurea was added every other week. […] 3,000 - 10,000 cells in 200 μl medium were seeded per well into 96-well plates. […] Approximately 10,000 cells per 100 μl were seeded in 96-well plates. […] The substances were dissolved in dimethylsulfoxide (DMSO). […] Subsequently, the samples were fixed, washed, and the absorption was determined by a microplate reader.

[2] = test system: multidrug-resistant KB-C1 cells; test: Inhibition of tumor cell growth, SRB-assay, KB-C1; type: cell-based, human
Method: (§2) In order to obtain information about the growth-inhibiting action on tumor cells, the inhibition of the growth of the following human tumor cells was determined: Burkitt's lymphoma (CA 46, ATCC No. CRL 1648), CCRF-CEM (acute lymphoblastic leukemia, ATCC No. CCL 119), K562 (chronic myelogenous leukemia, ATTC No. CCL 243), HeLa (epitheloid cervix carcinoma, ATCC No. CCL 2), MEXF 276L (melanoma), HT-29 (colon adenocarcinoma, ATCC No. HTB 38), KB-3-1 (human oral epidermoid carcinoma, CTCC No. CCL 17), KB-HU hydroxyurea-resistant, multidrug-resistant KB-C1 cells (Akiyama et al, Cell. Mol Genet., 11:117–126, 1985). Burkitt's, CCRF-CEM, HeLa and MEXF 276L cells were grown in RPMI 1640, HT-29 cells in McCoy's 5A medium. The KB cell lines were grown in Dulbecco's modified Eagle's medium (4,5 g glucose/l). To the cultures of KB-C1 cells 1 μg of colchicine/ml, and to the hydroxyurea-resistant KB-HU cells 1 mM hydroxyurea was added every other week. The media were supplemented with 10% fetal calf serum (except Burkitt's lymphoma cells with 15%), 2 mM glutamine, 50 units/ml penicillin and 50 μg/ml streptomycin. Inhibition of growth of HeLa, HT-29, KB and MEXF 276L cells was detected by the SRB-assay (Skehan et al, J. Natl Cancer Inst., 82:1107–1112, 1990). 3,000 - 10,000 cells in 200 μl medium were seeded per well into 96-well plates. Dose-response curves for CCRF-CEM and Burkitt's lymphoma cells were effected by an MTT-assay (Mosman, J. Immunol Methods, 65:55–63, 1983) from Boehringer Mannheim, Mannheim, Germany. Approximately 10,000 cells per 100 μl were seeded in 96-well plates. After an initial incubation of four hours, various substance concentrations were added, and the cells were incubated at 37° C. in a water-saturated atmosphere of 95% air and 5% CO2 for 72 hours. The substances were dissolved in dimethylsulfoxide (DMSO). The concentration of DMSO was 0.5%, and this was not toxic to the cells. Subsequently, the samples were fixed, washed, and the absorption was determined by a microplate reader.

[3] = test system: KB-3-1 (human oral epidermoid carcinoma); test: Inhibition of tumor cell growth, SRB-assay, KB-3-1; type: cell-based
Method: as §2

[4] = test system: KB-HU hydroxyurea-resistant cells; test: Inhibition of tumor cell growth, SRB-assay, KB-HU; type: cell-based, human
Method: as §2

[5] = test system: HeLa (epitheloid cervix carcinoma); test: Inhibition of tumor cell growth, SRB-assay, HeLa; type: cell-based, human
[6] = test system: Burkitt's lymphoma (CA 46, ATCC No. CRL 1648); test: Inhibition of tumor cell growth, MTT-assay, Burkitt's lymphoma; type: cell-based, human
Method: as §1

[7] = test system: human tumor grafts (cell lines of FIG. 1); test: Colony forming assay (two-layer soft agar); type: cell-based
Method: An excellent correlation of drug response in patients and the colony forming assay has been found (Scholz et al, Eur. J. Cancer 25:901–905, 1990). Solid human tumors were grown as grafts in nude mice, removed from the latter, mechanically comminuted and subsequently incubated in an enzyme cocktail consisting of collagenase (1.2–1.8 U/ml), DNAse (375 U/ml) and hyaluronidase (29 U/ml) in RPMI 1640 medium at 37° C. for 30 minutes. The cell mixture was passed through sieves of 200 μm and 50 μm mesh size and washed thereafter twice with PBS (phosphate buffered saline). The percentage of live cells was determined using a Neubauer counting chamber and trypan blue staining.
The colony forming assay was performed according to a two-layer agar technique introduced and modified by Hamburger and Salmon (Hamburger and Salmon, Science, 197:461–463, 1977). The bottom layer consisted of 0.2 ml of Iscoves's Modified Dulbecco's medium with 20% fetal calf serum and 0.75% agar. 8×10^3 to 1.6×10^4 cells were added to the same medium and 0.4% agar and plated in 24-multiwell plates onto the base layer. One day after the plating (with continuous exposure), the substances were added in 0.2 ml medium. Each plate included six controls containing the solvent only, and the treated groups contained 6 concentrations of the substances, each in triplicate. Cultures were incubated at 37° C. and 7% CO2 in a water-saturated atmosphere for 3 to 6 days, depending on the doubling time of the tumor cells. At the time of maximum colony formation with a size of […], counts were performed with an automatic image analysis system. 24 h prior to counting, live colonies were stained with a sterile aqueous solution of 2-(4-iodophenyl)-3-(4-nitrophenyl)-5-phenyltetrazolium chloride (1 mg/ml, 100 μl/well). The results of the tests are given in FIG. 1, and in the following Table 5, respectively. […] Columns pointing towards the right show a slighter than average activity.

[8] = Homo sapiens, KBC-1, Table 4, 72 hours, read-out: In vitro-activity against human tumor cell lines, KB-C1
[9] = Homo sapiens, KB 3-1, Table 4, 72 hours, read-out: In vitro-activity against human tumor cell lines, KB-3-1
[10] = Homo sapiens, Table 4, 72 hours, read-out: In vitro-activity against human tumor cell lines, KB-HU
[11] = Table 1, 72 hours, read-out: IC50 HT-29 (converted)
[12] = Table 1, 72 hours, read-out: IC50 KB-Cl
[13] = Table 1, 72 hours, read-out: IC50 KB-3-1
[14] = Table 1, 72 hours, read-out: IC50 KB-HU
[15] = Table 1, 72 hours, read-out: IC50 HeLa (converted)
[16] = Table 1, 72 hours, read-out: IC50 Burkitts
[17] = Table 4, 72 hours, read-out: In vitro-activity against human tumor cell lines, HT-29
[18] = Table 4, 72 hours, read-out: In vitro-activity against human tumor cell lines, KB-C1
[19] = Table 4, 72 hours, read-out: In vitro-activity against human tumor cell lines, KB-3-1
[20] = Table 4, 72 hours, read-out: In vitro-activity against human tumor cell lines, KB-HU
[21] = Table 4, 72 hours, read-out: In vitro-activity against human tumor cell lines, HeLa
[22] = Table 4, 72 hours, read-out: In vitro-activity against human tumor cell lines, Burkitts
[23] = Homo sapiens, mean values of all cell lines tested in FIG. 1, continuous exposure 3 to 6 days

Structure (SMILES): COc1cccnc1C(C)=NNc1nc2ccccc2n1C [Id-1, 1-(3-Methoxy-2-pyridyl)-1-ethanone-1-(1-methyl-1H-benzo[d]imidazol-2-yl)-hydrazone]
IC50 ([1]; Homo sapiens, HT-29, Table 4, 72 hours, read-out: In vitro-activity against human tumor cell lines, HT-29): 230 nM | IC50 [2, 8]: 870 nM | IC50 [3, 9]: 20 nM | IC50 [4, 10]: 10 nM | IC50 ([5]; Homo sapiens, HeLa, Table 4, 72 hours, read-out: In vitro-activity against human tumor cell lines, HeLa): 50 nM | IC50 ([6]; Homo sapiens, CA46, Table 4, 72 hours, read-out: In vitro-activity against human tumor cell lines, Burkitts): 1 nM

Structure (SMILES): CCC(=NNc1nc2ccccc2o1)c1ccccn1 [Ia-9]
tumor type selectivity ([7]; colony forming assay, IC70 pattern, FIG. 1): selectivity for colon, breast, ovarian, and uterus tumors

Structure (SMILES): CC(=NNc1nc2ccccc2n1C)c1ncccc1Cl [Id-3]
IC50 [1, 17]: 540 nM | IC50 [2, 18]: 300 nM | IC50 [3, 19]: 310 nM | IC50 [4, 20]: 180 nM | IC50 [5, 21]: 250 nM | IC50 [6, 22]: 4 nM

Structure (SMILES): CC(=NNc1nc2ccccc2n1C)c1ccc(C)cn1 [Id-9, 1-(5-Methyl-2-pyridyl)-1-ethanone-1-(1-methyl-1H-benzo[d]imidazol-2-yl)-hydrazone]
IC50 [7, 23]: 199 nM | IC90 [7, 23]: 3.79 µM | Mean IC70 ([7]; mean values of all cell lines tested in FIG. 1, continuous exposure 3 to 6 days): 0.560 µM | IC50 [2, 8]: 110 nM | IC50 [3, 9]: 40 nM | IC50 [4, 10]: 120 nM

Structure (SMILES): CC(=NNc1nc2ccccc2n1C)c1cccc(Br)n1 [Id-6]
IC50 [1, 17]: 3150 nM | IC50 [2, 18]: 2130 nM | IC50 [3, 19]: 1690 nM | IC50 [4, 20]: 3890 nM | IC50 [5, 21]: 3250 nM | IC50 [6, 22]: 2490 nM

Structure (SMILES): CC(=NNc1nc2ccccc2n1C)c1cccc(N(C)C)n1 [Id-13]
IC50 [1, 17]: 17600 nM | IC50 [2, 18]: 29500 nM | IC50 [3, 19]: 4020 nM | IC50 [4, 20]: 4900 nM | IC50 [5, 21]: 6600 nM | IC50 [6, 22]: 2010 nM

Continued, values first:

IC50 [1, 11]: 50 nM | IC50 [2, 12]: 48 nM | IC50 [3, 13]: 44 nM | IC50 [4, 14]: 52 nM | IC50 [5, 15]: 5.4 nM | IC50 [6, 16]: 4.3 nM
Structure (SMILES): CC(=NNc1nc2ccccc2n1C)c1ccccn1 [Ia-5]

IC50 [1, 11]: 3690 nM | IC50 [2, 12]: 2940 nM | IC50 [3, 13]: 1360 nM | IC50 [5, 15]: 1020 nM | IC50 [6, 16]: 660 nM
Structure (SMILES): C(=NNc1nc2ccccc2[nH]1)c1ccccn1 [Ia-1]

IC50 [1, 11]: 200 nM | IC50 [2, 12]: 830 nM | IC50 [3, 13]: 500 nM | IC50 [4, 14]: 130 nM | IC50 [5, 15]: 57 nM
Structure (SMILES): CCCC(=NNc1nc2ccccc2[nH]1)c1ccccn1 [Ia-11]

IC50 [1, 11]: > 100000 nM | IC50 [2, 12]: 92000 nM | IC50 [5, 15]: > 100000 nM
Structure (SMILES): CC(C)(C)C(=NNc1nc2ccccc2[nH]1)c1ccccn1 [Ia-19]

IC50 [1, 11]: 510 nM | IC50 [2, 12]: 320 nM | IC50 [5, 15]: 70 nM
Structure (SMILES): c1ccc(C(=NNc2nc3ccccc3[nH]2)C2CC2)nc1 [Ia-23]

IC50 [1, 11]: 240 nM | IC50 [2, 12]: 740 nM | IC50 [3, 13]: 4010 nM | IC50 [5, 15]: 53 nM
Structure (SMILES): CCC(=NNc1nc2ccccc2[nH]1)c1ccccn1 [Ia-7]
